Values joined by “and” are separate entries in the source; they are usually repeats but may differ in a detail not shown here. Equal entries are not always repeated.
Experiments:
[1] = molecular target: T1, HIS-CRTC2-S171A proteins (Homo sapiens, UniProt Q53ET0, S171A); experiment: Surface plasmon resonance, immobilized HIS-CRTC2-S171A; assay type: binding
T1 construct: made in house; host or cells: E. coli

[2] = tested on: gluconeogenic and lipogenic gene mRNA in primary hepatocytes; experiment: Quantitative PCR of gene expression in primary hepatocytes; assay type: cell-based, mouse; parameters: key to Lxra mRNA levels: mRNA level normalized to ribosomal L32 mRNA (internal control); key to Crtc2 mRNA levels / Srebf-1c mRNA levels / Srebf-2 mRNA levels / mRNA levels of G6pc / mRNA levels of CREB / mRNA levels of CRTC2: relative mRNA level, normalized to ribosomal L32; conditions: for Lxra mRNA levels, Mean / Srebf-2 mRNA levels, Mean / Srebf-1c mRNA levels, Mean / Crtc2 mRNA levels, Mean / Crtc2 mRNA levels / Lxra mRNA levels / Srebf-1c mRNA levels / Srebf-2 mRNA levels: Figure 7f; for Lxra mRNA levels, Mean / Srebf-2 mRNA levels, Mean / Srebf-1c mRNA levels, Mean / Crtc2 mRNA levels, Mean: mean of N=3; for Crtc2 mRNA levels / Lxra mRNA levels / Srebf-1c mRNA levels / Srebf-2 mRNA levels / mRNA levels of G6pc / mRNA levels of Pck1: single replicates; for mRNA of G6pc, mean / mRNA of Pck1, mean / mRNA levels of G6pc / mRNA levels of Pck1: Figure 9d; for mRNA of G6pc, mean / mRNA of Pck1, mean: group mean, N 6; for mRNA levels of CREB / mRNA levels of CRTC2 / mRNA levels of CREB, group mean (Mean 2) / mRNA levels of CRTC2, group mean (Mean 2): Supp. Fig.10 d; for mRNA levels of CREB / mRNA levels of CRTC2: individual replicates; for mRNA levels of CREB, group mean (Mean 2) / mRNA levels of CRTC2, group mean (Mean 2): n=6
Experimental: Total RNA from cells and tissues was extracted by Trizol (Invitrogen) and reverse-transcribed into cDNA using the prime script RT reagent kit with gDNA eraser (Takara). The mRNA levels were determined using the SYBR-green PCR kit (Takara) with ABIPRISM 7900HT Sequence detector (ABI) according to the manufacturer’s protocol. The quantitative qPCR primers used in this work are listed in Supplementary Table 1. Ribosomal L32 mRNA levels were used as an internal control.

[3] = tested on: mTORC1; experiment: Immunoblotting of mTORC1 signaling, mature SREBP1 and FASN in primary hepatocytes; assay type: cell-based, mouse; conditions: glucagon-insulin-treated primary hepatocytes
Experimental: Fi g u re B . Immunoblotting analysis of phosphorated or total protein amounts of S6K , mature SREBP -1and FASN in primary hepatocyt es . The cells wer epretreated with APC (10 μ M) for 2 hours , exposed to glucagon (100 nM) for 4 hours, and t hen followed by12- hour insulin (100 nM) incubationbefore collection.
(1 picture or pasted object on this page, not shown here) […]
I have a few more points that have to be addressed in the revised work.
1. In Figure B, it appeared that APC-induced p-S6K level was rather inhibited by glu/ins treatment (lane 3 vs lane 4). Is it significant?
Response: We agree wit h Reviewer1’ s comments that the western blotting band of p-S6K level of lane 4 seems weaker than that of lane3 in Figure B. However, we performed the densitometry analysis of all the results from three independent […]
independent of its effect on reducing SREBP-1c expression and the subsequent repression of lipogenesis. The authors should simply run western blot for mTORC1 signaling by utilizing the existing samples.
Response: We are grat eful for Reviewer1’s com ments. […]
to glucagon (100 nM) for 4 hours, and then followed by 12- hour insulin (100 nM) incubation before collection. […] Data are represented as mean ± SEM. *, p < 0.05; **, p < 0.01; p values were determined by two- way ANOVA followed Bonferroni’s multiple comparisons test. […]

[4] = molecular target: T2, luciferase (Photinus pyralis, UniProt P08659); experiment: Luciferase enzymatic assay; assay type: biochemical; conditions: lysate of HEK293T cells expressing CRE-Luc, 30 min
T2 construct: expressed in transfected cells; host or cells: HEK293T (lysate incubated with compound)
T2 sequence (P08659 whole entry): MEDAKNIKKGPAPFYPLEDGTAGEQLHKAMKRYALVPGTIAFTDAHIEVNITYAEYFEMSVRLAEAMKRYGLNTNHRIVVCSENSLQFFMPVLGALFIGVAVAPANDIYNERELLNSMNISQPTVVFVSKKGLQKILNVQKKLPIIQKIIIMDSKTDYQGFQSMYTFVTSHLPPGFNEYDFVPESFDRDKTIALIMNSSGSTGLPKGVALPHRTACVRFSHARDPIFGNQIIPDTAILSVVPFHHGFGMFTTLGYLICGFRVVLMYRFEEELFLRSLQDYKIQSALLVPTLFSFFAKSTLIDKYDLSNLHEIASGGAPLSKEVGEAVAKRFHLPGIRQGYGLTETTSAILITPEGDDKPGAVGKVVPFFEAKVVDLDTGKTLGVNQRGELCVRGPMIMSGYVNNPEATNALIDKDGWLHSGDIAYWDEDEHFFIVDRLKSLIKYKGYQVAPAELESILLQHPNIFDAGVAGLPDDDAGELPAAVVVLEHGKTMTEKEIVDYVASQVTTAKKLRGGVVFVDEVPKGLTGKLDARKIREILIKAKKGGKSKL
Experimental: HEK293T cells (4 × 10^5 per well of 24-well-plate) were transfected with plasmids expressing CRE-luciferase reporter (50 ng) together with RSV-β-gal (20 ng) by PEI-media overnight and induced by FSK (forskolin 10 nM) for 6-h. The cells were then collected in the lysis buffer (25 mM Gly-gly, 15 mM MgSO4, 4 mM EGTA, 1% V/V Triton X-100, 1 mM DTT, pH 7.8), mixed with an equal volume of luciferase substrate buffer (25 mM Gly-gly, 15 mM MgSO4, 4 mM EGTA, 250 mM potassium phosphate, 2.5 mM ATP, 2 mM DTT, 5 mg/mL luciferin, pH 7.8), and subjected to EnVision Multimode Plate Reader (Perkin/Elmer) to determine generated fluorescent signals.
13 d) Luciferase enzyme activity. The luciferase enzymatic activity from HEK293T cells incubated
The cells ectopically expressed luciferase (CRE-Luc) and were stimulated with FSK (10
15 nM) for 5 h before lysis, and then incubated with various concentrations of propolis for 30 min before
16 luciferase activity determination. One of two independent experiments presented here. Data are
17 represented as mean ± SEM (n=3 per treatment). ns, p > 0.05; *, p < 0.05; **, p < 0.01; p values were
18 determined by one-way ANOVA followed Dunnett’s multiple comparisons test.
13 f) The luciferase enzymatic activity of HEK293T incubated with APC. Cells over-expressed […]
17 determined by one-way ANOVA followed Dunnett’s multiple comparisons test.

T1 sequence (Q53ET0 whole entry S171A): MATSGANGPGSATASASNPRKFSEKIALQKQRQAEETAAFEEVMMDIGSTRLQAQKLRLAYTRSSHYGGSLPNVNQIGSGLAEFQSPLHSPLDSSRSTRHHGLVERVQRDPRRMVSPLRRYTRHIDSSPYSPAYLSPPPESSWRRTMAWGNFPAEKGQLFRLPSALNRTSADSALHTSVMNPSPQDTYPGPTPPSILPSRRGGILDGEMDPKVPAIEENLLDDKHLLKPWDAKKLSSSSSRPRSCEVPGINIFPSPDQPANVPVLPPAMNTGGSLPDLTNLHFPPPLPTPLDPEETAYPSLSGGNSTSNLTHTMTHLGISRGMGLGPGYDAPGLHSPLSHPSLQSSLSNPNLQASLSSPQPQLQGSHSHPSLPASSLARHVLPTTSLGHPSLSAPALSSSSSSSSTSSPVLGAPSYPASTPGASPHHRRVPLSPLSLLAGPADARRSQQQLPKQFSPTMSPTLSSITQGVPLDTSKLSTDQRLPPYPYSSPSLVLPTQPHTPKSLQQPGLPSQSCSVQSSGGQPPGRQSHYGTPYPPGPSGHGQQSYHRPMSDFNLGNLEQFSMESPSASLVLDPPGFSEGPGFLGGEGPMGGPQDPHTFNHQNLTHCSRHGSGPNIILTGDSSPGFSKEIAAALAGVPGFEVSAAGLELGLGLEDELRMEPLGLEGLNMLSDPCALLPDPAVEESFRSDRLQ

Structure (SMILES): CC(C)=CCc1cc(C=CC(=O)O)cc(CC=C(C)C)c1O [APC, 3,5-diprenyl-4-hydroxycinnamic acid]
- affinity to CRTC2 (SPR) [1]: no affinity
- Lxra mRNA levels, Mean ([2]; LV-CRTC2(S171A), Ctrl mean 1.393): 0.7111
- Srebf-2 mRNA levels, Mean ([2]; LV-CRTC2(S171A), Ctrl mean 1.711): 0.86
- Srebf-1c mRNA levels, Mean ([2]; LV-CRTC2(S171A), Ctrl mean 1.819): 1.166
- Crtc2 mRNA levels, Mean ([2]; LV-CRTC2(S171A), Ctrl mean 153.3): 159.3
- Crtc2 mRNA levels ([2]; LV-Crtc2-S171A): 189.700 and 115.000 and 173.200
- Lxra mRNA levels ([2]; LV-Crtc2-S171A): 0.732 and 0.747 and 0.654
- Srebf-1c mRNA levels ([2]; LV-Crtc2-S171A): 1.132 and 1.102 and 1.263
- Srebf-2 mRNA levels ([2]; LV-Crtc2-S171A): 0.860 and 0.819 and 0.901
- Crtc2 mRNA levels, Mean ([2]; LV-GFP, Ctrl mean 0.9233): 1.106
- Lxra mRNA levels, Mean ([2]; LV-GFP, Ctrl mean 0.93): 0.8542
- Srebf-2 mRNA levels, Mean ([2]; LV-GFP, Ctrl mean 0.9967): 1.087
- Srebf-1c mRNA levels, Mean ([2]; LV-GFP, Ctrl mean 1.053): 0.9578
- Crtc2 mRNA levels ([2]; LV-Gfp): 1.240 and 0.976 and 1.101
- Lxra mRNA levels ([2]; LV-Gfp): 0.950 and 0.709 and 0.904
- Srebf-1c mRNA levels ([2]; LV-Gfp): 0.940 and 1.083 and 0.850
- Srebf-2 mRNA levels ([2]; LV-Gfp): 1.040 and 1.162 and 1.060
- mRNA of G6pc, mean ([2]; +Gluc): 73.01
- mRNA of Pck1, mean ([2]; +Gluc): 64.35
- mRNA levels of G6pc ([2]; +Gluc): 67.250 and 68.919 and 73.819 and 74.050 and 79.623 and 74.414
- mRNA levels of Pck1 ([2]; +Gluc): 68.035 and 58.064 and 57.318 and 65.734 and 69.952 and 67.024
- mRNA of G6pc, mean ([2]; -Gluc): 0.2875
- mRNA of Pck1, mean ([2]; -Gluc): 0.3152
- mRNA levels of G6pc ([2]; -Gluc): 0.207 and 0.251 and 0.273 and 0.385 and 0.234 and 0.375
- mRNA levels of Pck1 ([2]; -Gluc): 0.283 and 0.267 and 0.371 and 0.342 and 0.306 and 0.322
- mRNA levels of CREB ([2]; +Gluc): 0.685 and 0.852 and 0.9121 and 0.8012 and 0.8061 and 0.6905
- mRNA levels of CRTC2 ([2]; +Gluc): 0.8083 and 0.8216 and 1.1926 and 0.9078 and 0.9957 and 1.2399
- mRNA levels of CREB, group mean (Mean 2) ([2]; +Gluc, Ctrl mean 0.8616): 0.7912
- mRNA levels of CRTC2, group mean (Mean 2) ([2]; +Gluc, Ctrl mean 0.8879): 0.9943
- mRNA levels of CREB ([2]; -Gluc): 0.9172 and 0.8231 and 0.8735 and 0.9451 and 0.728 and 1.0773
- mRNA levels of CRTC2 ([2]; -Gluc): 1.0775 and 1.0279 and 1.0015 and 1.1906 and 1.0107 and 1.2086
- mRNA levels of CREB, group mean (Mean 2) ([2]; -Gluc, Ctrl mean 0.9538): 0.894
- mRNA levels of CRTC2, group mean (Mean 2) ([2]; -Gluc, Ctrl mean 1.009): 1.086
- mRNA levels of Lxrα, Srebf1 and Srebf2 with overexpressed Crtc2-S171A ([2]; primary hepatocytes, APC 10 μM, 8-h): effectively reduced
- mRNA accumulation of G6pc, Pck1 and Pgc-1α induced by glucagon ([2]; primary hepatocytes, APC 1, 5 or 50 μM): remarkably decreased
- mTORC1 activity [3]: increased
- protein amounts of mature SREBP1 and fat acid synthase [3]: decreased
- effect on luciferase enzymatic activity [4]: no effect

Reference: publication PMC8752738, “A propolis-derived small molecule ameliorates metabolic syndrome in obese mice by targeting the CREB/CRTC2 transcriptional complex” (Nature Communications, 2022)
